A word on the solubility: it is how much of the substance goes into solution per volume. The AUC is concentration integrated over time.

Read-outs that look alike come from different tables or passages of the source. Some results are limits rather than exact numbers.

Two compounds from patent US20180015088A1, “SITE SPECIFIC DOSING OF A BTK INHIBITOR” (Principia Biopharma Inc., priority 2014, published 2018) can be followed below.

Data set [1] is described as follows: Solubility of Compound (I) at low pH. Type of data set: physicochemical.
The subject of data set [2] is intestinal tissue (stomach, duodenum, jejunum, ileum, colon). In words: In vitro permeation in Ussing chambers through different intestinal regions of rat. Type of data set: in vitro ADME, Sprague-Drawley rats. The settings on record: 100 uM, mucosal to serosal, distal regions compared to stomach or duodenum, FIG. 7. As for the experimental part: Reagents: 10× Krebs-Ringer buffer (KRB) comprised of 1.26M NaCl (Promega, Madison, Wis.), 25mM KCl, 250 mM NaHCO3, 12 mM NaH2PO4, 12 mM MgCl2, 25 mM CaCl2 and 18 g/L D-Glucose (all from Sigma Aldrich, St. Louis, Mo.) prepared and stored individually to prevent crystallization. Dilute to 1× working concentration prior to use and pH adjusted with either carbogen perfusion for 20 mins to pH 7.4 (oxygenated KRB) or 1M HCl (Alfar Aesar, Ward Hill, Mass.) to pH 3.5, 6.5 or 7.4. 0.1% Phenol red, Antipyrine and Atenolol were purchased from Sigma Aldrich, St. Louis, Mo.
Harvest and preparation of intestinal tissue: 4 to 9 month old adult female virgin Sprague-Drawley rats (Harlan Laboratories, Livermore, Calif.) were acclimated in-house for a minimum of 3 days prior to experimentation. Adolescent and geriatric animals should be avoided to prevent age-related differences in gastro-intestinal morphology and function. Animals were housed under IACUC-approved husbandry protocols including 12-hour light and 12-hour dark cycles, and allowed standard chow and water ad libitum. Tissue harvest should be performed one animal at a time to maintain tissue viability. […]

Data set [3] can be described thus: Site specific gastrointestinal dosing (oral gavage, intraduodenal, intrajejunal) in rats, plasma AUC. The following applies: for AUC: Wister-Hans, rat, plasma. It is filed as in vivo, Wister-Hans rats. Here is the method: Compound (I) was dosed in 10 mg/mL aqueous citrate solution at 20 mg/kg to Wister-Hans rats. Free base of Compound (I) was dissolved in aqueous solution of citric acid (containing 0.5 equivalents of anhydrous citiric acid) . The experiment was repeated 3 times each with 2 separate arms, and one oral (PO) gavage arm was included in each study. Intra-jejunal (IJ) and intra-duodenal (ID) dosing was done in cannulated rats. In the first study, there was about 40-fold increase in the AUC for the IJ-dosed group compared to the PO group, and the major metabolite, present in the PO arm was reduced by 20 fold in the IJ-group.

A short description of data set [4]: Solubility of the salt in water at ambient temperature. Type of data set: physicochemical. As for the experimental part: To the solution of (R)-2-[3-[4-amino-3-(2-fluoro-4-phenoxy-phenyl)pyrazolo[3,4-d]pyrimidin-1-yl]piperidine-1-carbonyl]-4-methyl-4-[4-(oxetan-3-yl)piperazin-1-yl]pent-2-enenitrile (having about 9/1 E/Z ratio) (4.2 g) in EtOAc (60 mL, 15 vol) was added sulfuric acid (0.31 g, 0.17 mL, 0.5 eq) in EtOAc (20 mL, 5 vol) at ambient temperature. The suspension was stirred at ambient temperature for ˜2 hr and then 40° C. for 4 hr and then at ambient temperature for at least 1 hr. After filtration and drying at ambient temperature under vacuum, 1.5 g of white powder was obtained. Solubility of the hemi-sulfate at ambient temperature was >100 mg/mL in water.

On to `CC(C)(C=C(C#N)C(=O)N1CCCC(n2nc(-c3ccc(Oc4ccccc4)cc3F)c3c(N)ncnc32)C1)N1CCN(C2COC2)CC1` [Compound (I), (R)-2-[3-[4-amino-3-(2-fluoro-4-phenoxy-phenyl)pyrazolo[3,4-d]pyrimidin-1-yl]piperidine-1-carbonyl]-4-methyl-4-[4-(oxetan-3-yl)piperazin-1-yl]pent-2-enenitrile], for which, in data set [1], the “solubility at low pH” value was “greater than 10 % (w/v)”. In data set [2], the “permeability (Papp) by region of the GI tract” value was “statistically increased permeabilities”. Moreover, in data set [3] (ID vs PO), the “increase in AUC, ID compared to oral gavage” value is “approximately 2 fold”. Moreover, the “metabolic stability by site of administration” value in data set [3] (IJ dosing compared to oral gavage) was “more metabolically stable”. The area under the curve (AUC) in data set [3] (20 mg/kg, intraduodenum cannula, 20 mg/kg, aqueous citrate solution, read-out: AUC, intraduodenal (ID) dosing) was 1780 ng·h/mL; in data set [3] (other: intrajejunal, 20 mg/kg, intrajejunum cannula, 20 mg/kg, aqueous citrate solution, read-out: AUC, intrajejunal (IJ) dosing) it was 14400 ng·h/mL; in data set [3] (po, 20 mg/kg, oral (PO) gavage, 20 mg/kg, 10 mg/mL aqueous citrate solution, read-out: AUC, oral gavage), 668 to 1640 ng·h/mL. Also, the “AUC, intrajejunal (IJ) dosing” value in data set [3] (intrajejunum cannula, 20 mg/kg, aqueous citrate solution) is reported as 26,800 ng*hr/ml. Besides, the “AUC, oral gavage” value in data set [3] (oral (PO) gavage, 20 mg/kg, 10 mg/mL aqueous citrate solution) is 994 ng·h/mL.
Take `CC(C)(C=C(C#N)C(=O)N1CCC[C@@H](n2nc(-c3ccc(Oc4ccccc4)cc3F)c3c(N)ncnc32)C1)N1CCN(C2COC2)CC1` [hemi-sulfate, (R)-2-[3-[4-amino-3-(2-fluoro-4-phenoxy-phenyl)pyrazolo[3,4-d]pyrimidin-1-yl]piperidine-1-carbonyl]-4-methyl-4-[4-(oxetan-3-yl)piperazin-1-yl]pent-2-enenitrile]: the solubility in data set [4] is above 100 mg/mL.
